Among the data in US20200405697A1, “Antitumor Agent” (Taiho Pharmaceutical Co., Ltd, priority 2017, published 2020) are IC50 values, retold here.

In this assay the target is T1, human RNR (histidine tagged human M1 and human M2 proteins) (Homo sapiens, UniProt P23921).
T1 construct: made in house; host or cells: Escherichia coli
T1 sequence (P23921 1-792): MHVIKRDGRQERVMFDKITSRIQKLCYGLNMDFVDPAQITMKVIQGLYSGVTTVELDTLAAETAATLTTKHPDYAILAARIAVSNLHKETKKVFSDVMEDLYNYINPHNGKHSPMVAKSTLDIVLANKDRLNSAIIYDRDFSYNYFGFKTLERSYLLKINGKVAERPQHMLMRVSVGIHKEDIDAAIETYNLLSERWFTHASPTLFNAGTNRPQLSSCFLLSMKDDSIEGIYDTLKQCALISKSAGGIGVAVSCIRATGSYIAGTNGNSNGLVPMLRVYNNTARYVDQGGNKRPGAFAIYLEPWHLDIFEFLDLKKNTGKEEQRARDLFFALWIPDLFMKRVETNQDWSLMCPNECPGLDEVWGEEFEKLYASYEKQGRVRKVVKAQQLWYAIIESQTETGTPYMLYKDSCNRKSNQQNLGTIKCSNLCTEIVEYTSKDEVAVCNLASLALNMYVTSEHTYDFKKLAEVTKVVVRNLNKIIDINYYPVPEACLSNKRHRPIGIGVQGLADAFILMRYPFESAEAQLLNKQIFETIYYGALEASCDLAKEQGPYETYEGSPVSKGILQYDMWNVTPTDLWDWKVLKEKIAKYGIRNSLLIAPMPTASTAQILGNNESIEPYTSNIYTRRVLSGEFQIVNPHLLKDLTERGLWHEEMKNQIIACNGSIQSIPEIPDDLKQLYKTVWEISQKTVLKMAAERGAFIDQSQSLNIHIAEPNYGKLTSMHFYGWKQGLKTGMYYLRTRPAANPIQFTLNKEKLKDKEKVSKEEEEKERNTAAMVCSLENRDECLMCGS
In words: Human RNR inhibition effect (dCDP formation from CDP). In kind it is biochemical. Particulars: 10 μM CDP, 37° C. for 30 minutes, read-out: RNR inhibitory activity IC50. The essentials: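 His-tagged human M1 (isoform 1) and N-terminal 59-aa-truncated M2 (isoform 2), E. coli-expressed, Ni-purified, preincubated 20 min with compound (1% DMSO). Reaction with 10 μM CDP, 2 mM ATP, 0.24 mM NADPH, 6 mM DTT, 4 mM Mg acetate, 100 mM KCl, 50 mM HEPES pH 7.2, 30 min at 37° C. dCDP formed quantified by reverse-phase HPLC after heat stop.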
For `CNC(=O)c1cc(Br)cnc1S(=O)(=O)N[C@H](c1n[nH]c(=O)o1)[C@H](C)c1c(F)ccc(C)c1C` [Example 251, 5-bromo-2-(N-((1S,2R)-2-(6-fluoro-2,3-dimethylphenyl)-1-(5-oxo-4,5-dihydro-1,3,4-oxadiazol-2-yl)propyl)sulfamoyl)-N-methylnicotinamide], the half-maximal inhibitory concentration (IC50) came out at 250 nM.
The result for `Cc1ccc(F)c([C@@H](C)[C@H](NS(=O)(=O)c2cc(C(C)(C)O)c(F)cc2C(N)=O)c2n[nH]c(=O)o2)c1C` [Example 196, 5-fluoro-2-(N-((1S,2R)-2-(6-fluoro-2,3-dimethylphenyl)-1-(5-oxo-4,5-dihydro-1,3,4-oxadiazol-2-yl)propyl)sulfamoyl)-4-(2-hydroxypropan-2-yl)benzamide] reads 80 nM; that for `CC(=O)OC1(C(F)(F)F)CCOc2c(S(=O)(=O)N[C@H](c3n[nH]c(=O)o3)[C@H](C)c3c(F)ccc(C)c3C)ccc(Cl)c21` (stereo partly drawn) [Example 123, 5-chloro-8-(N-((1S,2R)-2-(6-fluoro-2,3-dimethylphenyl)-1-(5-oxo-4,5-dihydro-1,3,4-oxadiazol-2-yl)propyl)sulfamoyl)-4-(trifluoromethyl)chroman-4-ylacetate], 110 nM.
The figure for `COc1c(S(=O)(=O)N[C@H](c2n[nH]c(=O)o2)[C@H](C)c2c(F)ccc(C)c2C)ccc(Cl)c1C(C)(C)OC(C)=O` [Example 108, 2-(6-chloro-3-(N-((1S,2R)-2-(6-fluoro-2,3-dimethylphenyl)-1-(5-oxo-4,5-dihydro-1,3,4-oxadiazol-2-yl)propyl)sulfamoyl)-2-methoxyphenyl)propan-2-ylacetate] is 430 nM; for `Cc1c(Br)ccc(F)c1[C@@H](C)[C@H](NS(=O)(=O)c1ccc(Cl)c2c1OCCC2O)c1n[nH]c(=O)o1` (single isomer, unassigned) [Example 243A] it is 70 nM; for `Cc1ccc(F)c([C@@H](C)[C@H](NS(=O)(=O)c2cc3c(cc2C(N)=O)OCCO3)c2n[nH]c(=O)o2)c1C` [Example 261, 7-(N-((1S,2R)-2-(6-fluoro-2,3-dimethylphenyl)-1-(5-oxo-4,5-dihydro-1,3,4-oxadiazol-2-yl)propyl)sulfamoyl)-2,3-dihydrobenzo[b][1,4]dioxin-6-carboxamide] it is 90 nM.
Take `Cc1ccc(F)c([C@@H](C)[C@H](NS(=O)(=O)c2ccc(Br)cc2C#N)c2n[nH]c(=O)o2)c1C` [Example 92, 4-bromo-2-cyano-N-((1S,2R)-2-(6-fluoro-2,3-dimethylphenyl)-1-(5-oxo-4,5-dihydro-1,3,4-oxadiazol-2-yl)propyl)benzenesulfonamide]: the IC50 worked out at 200 nM.
The figure for `Cc1c(-c2cnn(C)c2)ccc(F)c1[C@@H](C)[C@H](NS(=O)(=O)c1ccc(Cl)cc1C(N)=O)c1n[nH]c(=O)o1` [Example 324, 5-chloro-2-(N-((1S,2R)-2-(6-fluoro-2-methyl-3-(1-methyl-1H-pyrazol-4-yl)phenyl)-1-(5-oxo-4,5-dihydro-1,3,4-oxadiazol-2-yl)propyl)sulfamoyl)benzamide] is 170 nM; for `Cc1cccc([C@@H](C)[C@H](NS(=O)(=O)c2ccc(Br)cc2C(N)=O)c2n[nH]c(=O)o2)c1C` [Example 4, 5-bromo-2-(N-((1S,2R)-2-(2,3-dimethylphenyl)-1-(5-oxo-4,5-dihydro-1,3,4-oxadiazol-2-yl)propyl)sulfamoyl)benzamide] it is 380 nM.
The figure for `Cc1ccc(S(=O)(=O)N[C@H](c2n[nH]c(=O)o2)[C@H](C)c2c(F)ccc(C)c2C)cc1` [Example 151, N-((1S,2R)-2-(6-fluoro-2,3-dimethylphenyl)-1-(5-oxo-4,5-dihydro-1,3,4-oxadiazol-2-yl)propyl)-4-methylbenzenesulfonamide] is 410 nM; for `Cc1ccc(F)c([C@@H](C)[C@H](NS(=O)(=O)c2ccc(Cl)cc2C(=O)O)c2n[nH]c(=O)o2)c1C` [Example 210, 5-chloro-2-(N-((1S,2R)-2-(6-fluoro-2,3-dimethylphenyl)-1-(5-oxo-4,5-dihydro-1,3,4-oxadiazol-2-yl)propyl)sulfamoyl)benzoic acid] it is 180 nM.
The result for `Cc1ccc(F)c([C@@H](C)[C@H](NS(=O)(=O)c2ccc([N+](=O)[O-])cc2)c2n[nH]c(=O)o2)c1C` [Example 340, N-((1S,2R)-(6-fluoro-2,3-dimethylphenyl)-1-(5-oxo-4,5-dihydro-1,3,4-oxadiazol-2-yl)propyl)-4-nitrobenzenesulfonamide] reads 270 nM.
For the compound `Cc1ccc(F)c([C@@H](C)[C@H](NS(=O)(=O)c2ccc(Cl)c3c2OCCC3=O)c2n[nH]c(=O)o2)c1C` [Example 88, 5-chloro-N-((1S,2R)-2-(6-fluoro-2,3-dimethylphenyl)-1-(5-oxo-4,5-dihydro-1,3,4-oxadiazol-2-yl)propyl)-4-oxochroman-8-sulfonamide], the IC50 is 150 nM.
Consider `Cc1ccc(F)c([C@@H](C)[C@H](NS(=O)(=O)c2ccc(Cl)c3c2OCC(=O)N3C)c2n[nH]c(=O)o2)c1C` [Example 93, 5-chloro-N-((1S,2R)-2-(6-fluoro-2,3-dimethylphenyl)-1-(5-oxo-4,5-dihydro-1,3,4-oxadiazol-2-yl)propyl)-4-methyl-3-oxo-3,4-dihydro-2H-benzo[b][1,4]oxazine-8-sulfonamide], for which the IC50 is 100 nM.
The result for `Cc1ccc(F)c([C@@H](C)[C@H](NS(=O)(=O)c2ccc(Cl)c3c2C(=O)CCC3)c2n[nH]c(=O)o2)c1C` [Example 107, 4-chloro-N-((1S,2R)-2-(6-fluoro-2,3-diinethylphenyl)-1-(5-oxo-4,5-dihydro-1,3,4-oxadiazol-2-yl)propyl)-8-oxo-5,6,7,8-tetrahydronaphthalene-1-sulfonamide] reads 240 nM; that for `Cc1c(Cl)ccc(F)c1[C@@H](C)[C@H](NS(=O)(=O)c1ccc(Cl)c2c1OCCC2O)c1n[nH]c(=O)o1` (single isomer, unassigned) [Example 238A], 110 nM; that for `Cc1ccc(F)c([C@@H](C)[C@H](NS(=O)(=O)c2ccc(Cl)cc2C#N)c2n[nH]c(=O)o2)c1C` [Example 84, 4-chloro-2-cyano-N-((1S,2R)-2-(6-fluoro-2,3-dimethylphenyl)-1-(5-oxo-4,5-dihydro-1,3,4-oxadiazol-2-yl)propyl)benzenesulfonamide], 360 nM.
Consider `COc1cc(N)ccc1S(=O)(=O)N[C@H](c1n[nH]c(=O)o1)[C@H](C)c1cccc2c1CCC2` [Example 270, 4-amino-N-((1S,2R)-2-(2,3-dihydro-1H-inden-4-yl)-1-(5-oxo-4,5-dihydro-1,3,4-oxadiazol-2-yl)propyl)-2-methoxybenzenesulfonamide], for which the half-maximal inhibitory concentration (IC50) turned out to be 730 nM.
The result for `CC(=O)OC(C)c1nc(S(=O)(=O)N[C@H](c2n[nH]c(=O)o2)[C@H](C)c2cccc3c2CCC3)ccc1Cl` (stereo partly drawn) [Example 142, 1-(3-chloro-6-(N-((1S,2R)-2-(2,3-dihydro-1H-inden-4-yl)-1-(5-oxo-4,5-dihydro-1,3,4-oxadiazol-2-yl)propyl)sulfamoyl)pyridin-2-yl)ethylacetate] reads 210 nM; that for `Cc1ccc(F)c([C@@H](C)[C@H](NS(=O)(=O)c2ccc3[nH]c(=O)c(=O)[nH]c3c2)c2n[nH]c(=O)o2)c1C` [Example 172, N-((1S,2R)-2-(6-fluoro-2,3-dimethylphenyl)-1-(5-oxo-4,5-dihydro-1,3,4-oxadiazol-2-yl)propyl)-2,3-dioxo-1,2,3,4-tetrahydroquinoxaline-6-sulfonamide], 820 nM; that for `CC(O)c1c(Cl)ccc(S(=O)(=O)N[C@H](c2n[nH]c(=O)o2)[C@H](C)c2cccc3c2CCC3)c1Cl` (stereo partly drawn) [Example 201, 2,4-dichloro-N-((1S,2R)-2-(2,3-dihydro-1H-inden-4-yl)-1-(5-oxo-4,5-dihydro-1,3,4-oxadiazol-2-yl)propyl)-3-(1-hydroxyethyl)benzenesulfonamide], 170 nM.
The figure for `COc1c(S(=O)(=O)N[C@H](c2n[nH]c(=O)o2)[C@H](C)c2c(F)ccc(C)c2C)ccc(Cl)c1C(C)OC(C)=O` (stereo partly drawn) [Example 144, 1-(6-chloro-3-(N-((1S,2R)-2-(6-fluoro-2,3-dimethylphenyl)-1-(5-oxo-4,5-dihydro-1,3,4-oxadiazol-2-yl)propyl)sulfamoyl)-2-methoxyphenyl)ethyl acetate] is 170 nM; for `Cc1c(Cl)ccc(F)c1[C@@H](C)[C@H](NS(=O)(=O)c1ccc(Cl)c2c1OCCN2C)c1n[nH]c(=O)o1` [Example 289, 5-chloro-N-((1S,2R)-2-(3-chloro-6-fluoro-2-methylphenyl)-1-(5-oxo-4,5-dihydro-1,3,4-oxadiazol-2-yl)propyl)-4-methyl-3,4-dihydro-2H-benzo[b][1,4]oxazine-8-sulfonamide] it is 130 nM.
